The subject of test [1] is native uricase (UOx). Put plainly: Activity assay, decrease of A290 with urate. The class given is biochemical. An excerpt:
(§1) The initial rates were achieved by plotting the absorption at 290 nm versus time and calculating the ΔA290/min from the linear portion of the curve.

For test [2], the system named is pMPC-nUOx (uricase encapsulated in a pMPC nanocapsule). Put plainly: Activity assay, decrease of A290 with urate. Format: biochemical.
Excerpt: as §1

In test [3] the test system is pMPC-nGOx (glucose oxidase encapsulated in a pMPC nanocapsule). Put plainly: Activity assay, HRP-coupled oxidation rate of TMB with D-gluocose. The class given is biochemical.
Method: (§6) The activity of native GOx, pMPC-nGOx, native AOx, and pMPC-nAOx were determined with a similar method. Briefly, the initial reaction rates were determined by monitoring the oxidation rates of TMB of GOx and AOx when incubating with the assay solutions with different concentrations of substrates, respectively. For native GOx and pMPC-nGOx, the assay solutions were prepared by mixing TMB (0.5 mM), native HRP (0.001 mg/mL), and different amount of D-gluocose (0.005%, 0.010%, 0.015%, 0.020%, 0.030%, 0.040%, w/v) in 0.1 M phosphate buffer (pH 7.0). […] The measurements were achieved by monitoring the A655 of the reaction solutions during the incubation of 1 μL of native enzyme or pMPC-nProtein (0.5 mg/mL for native GOx and pMPC-nGOx, 1 mg/mL for native AOx and pMPC-nAOx) with their corresponding assay solution.
Test [4] deals with native glucose oxidase (GOx). The test is described as above. Format: biochemical.
Method: as §6
Test [5] has as its system pMPC-nHRP (horseradish peroxidase encapsulated in a pMPC nanocapsule). An excerpt: (§2) To verify this, four enzymes, including horseradish peroxidase (HRP), glucose oxidase (GOx), uricase (UOx), and alcohol oxidase (AOx), were encapsulated with the same method, and their enzymatic activities were compared with their native counterparts, respectively.
(§3) After acryloxylation, protein was encapsulated with pMPC using a in situ polymerization method. For the polymerization, 2-Methacryloyloxyethyl phosphorylcholine (MPC) and bis-methacrylamide (BIS) were first prepared as 10% (w/v) stock solution in DI-water and anhydrous DMSO, respectively. The final protein concentration was tuned to 1 mg/mL by diluting with phosphate buffer (50 mM, pH 7.0). Polymerization was initiated by the addition of ammonium persulfate (APS) and tetramethylethylenediamine (TEMED) and kept at room temperature for 2 h. After the polymerization, the solution was dialyzed against PBS to remove unreacted monomers and by-products. The detailed synthesis parameters of pMPC-nEGFP, pMPC-nOVA, pMPC-nHRP, pMPC-nGOx, pMPC-nUOx, pMPC-nAOx, pMPC-nTf, and pMPC-nBSA were listed in Table 5.
(§4) The activity of pMPC-nHRP and native HRP were determined by monitoring the oxidation rate of 3,3′,5,5′-tetramethylbenzidine (TMB) using hydrogen peroxide (H2O2) as the substrate. Briefly, a series of H2O2 stock solutions with concentrations of 0.001%, 0.002%, 0.003%, 0.004%, 0.006%, 0.008% (w/v) was prepared by diluting a 50% H2O2 (w/v) with 0.1 M acetate buffer (pH 5.01) with 0.5 mM TMB. After mixing 1 mL of the substrate solution with 1 μL of pMPC-nHRP (0.1 mg/mL) or native HRP, the absorbance at 655 nm (A655) of the reaction solution was monitored with a UV-Vis spectrometer for 3 min. The absorption curve was plotted versus time and ΔA655/min from the linear portion of the curve was calculated. The activity assays were repeated with a series of concentrations of substrate to get the catalytic rates to obtain KM^app and kcat^app by the Lineweaver—Burk plot.

The target in test [6] is T1, native horseradish peroxidase (HRP) (Armoracia rusticana, UniProt P00433).
T1 construct: H2O2 substrate with TMB
T1 sequence (P00433 31-338): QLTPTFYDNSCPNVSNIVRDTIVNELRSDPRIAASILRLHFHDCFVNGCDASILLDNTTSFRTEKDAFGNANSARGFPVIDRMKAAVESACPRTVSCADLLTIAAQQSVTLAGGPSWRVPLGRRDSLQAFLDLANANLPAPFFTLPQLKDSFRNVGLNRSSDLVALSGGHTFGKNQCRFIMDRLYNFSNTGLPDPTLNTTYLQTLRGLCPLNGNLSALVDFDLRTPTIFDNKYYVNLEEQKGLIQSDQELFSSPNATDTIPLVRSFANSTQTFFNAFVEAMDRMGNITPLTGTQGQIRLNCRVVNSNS
Put plainly: Activity assay, oxidation rate of TMB with H2O2 as substrate. Format: biochemical.

Test [7] concerns native alcohol oxidase (AOx). The protocol:
as §2, §4
(§5) The activity of native GOx, pMPC-nGOx, native AOx, and pMPC-nAOx were determined with a similar method. Briefly, the initial reaction rates were determined by monitoring the oxidation rates of TMB of GOx and AOx when incubating with the assay solutions with different concentrations of substrates, respectively. For native GOx and pMPC-nGOx, the assay solutions were prepared by mixing TMB (0.5 mM), native HRP (0.001 mg/mL), and different amount of D-gluocose (0.005%, 0.010%, 0.015%, 0.020%, 0.030%, 0.040%, w/v) in 0.1 M phosphate buffer (pH 7.0). For native AOx and pMPC-nAOx, the assay solutions were composed by TMB (0.5 mM), native HRP (0.001 mg/mL), and different amount of ethanol (0.0025%, 0.005%, 0.0075%, 0.010%, 0.020%, 0.030%, w/v) in 0.1 M phosphate buffer (pH 7.0). The measurements were achieved by monitoring the A655 of the reaction solutions during the incubation of 1 μL of native enzyme or pMPC-nProtein (0.5 mg/mL for native GOx and pMPC-nGOx, 1 mg/mL for native AOx and pMPC-nAOx) with their corresponding assay solution.

Test [8] relates to pMPC-nAOx (alcohol oxidase encapsulated in a pMPC nanocapsule).
Excerpt: as §2, §3, §4
as §5, with “The measurements were achieved by monitoring the A655 of the reaction solutions during the incubation of 1 μL of native enzyme or pMPC-nProtein (0.5 mg/mL for native GOx and pMPC-nGOx, 1 mg/mL for native AOx and pMPC-nAOx) with their corresponding assay solution.” left out

Structures are written as SMILES.

By Km is commonly meant the concentration of substrate that gives half-maximal velocity. As for `O=c1[nH]c(=O)c2[nH]c(=O)[nH]c2[nH]1` [urate], the “Kcat^app/KM^app relative to native” value was 100 ± 7.7% in test [1] (native UOx = 100%) and 90.4 ± 16.5% in test [2] (pMPC-nUOx vs native UOx). In addition, the “kcat^app” value in test [1] (native UOx, 0.1 M borate buffer pH 8) was 3.36 s⁻¹; in test [2] (pMPC-nUOx, 0.1 M borate buffer pH 8) it was 3.59 s⁻¹. Further, the Michaelis constant (Km) in test [1] (native UOx, 0.1 M borate buffer pH 8, read-out: KM^app) came to 0.0219 ± 0.0017 mM; in test [2] (pMPC-nUOx, 0.1 M borate buffer pH 8, read-out: KM^app), 0.0259 ± 0.0043 mM. Also, the “Kcat^app/KM^app” value in test [1] (native UOx, pH 8) came out at 153400 ± 11800 M⁻¹ s⁻¹; in test [2] (pMPC-nUOx, pH 8), 138600 ± 22900 M⁻¹ s⁻¹.

Turning to `OC[C@H]1OC(O)[C@H](O)[C@@H](O)[C@@H]1O` (stereo partly drawn) [D-gluocose], the “Kcat^app/KM^app relative to native” value in test [3] (pMPC-nGOx vs native GOx) worked out at 73.7 ± 31.1%; in test [4] (native GOx = 100%) it was 100 ± 34.5%. The “kcat^app” value was 77.6 s⁻¹ in test [3] (pMPC-nGOx, 0.1 M phosphate buffer pH 7.0, 0.5 mM TMB, HRP 0.001 mg/mL) and 87.9 s⁻¹ in test [4] (native GOx, 0.1 M phosphate buffer pH 7.0, 0.5 mM TMB, HRP 0.001 mg/mL). In addition, the Michaelis constant (Km) in test [3] (pMPC-nGOx, 0.1 M phosphate buffer pH 7.0, 0.5 mM TMB, HRP 0.001 mg/mL, read-out: KM^app) stood at 21.6 ± 6.7 mM; in test [4] (native GOx, 0.1 M phosphate buffer pH 7.0, 0.5 mM TMB, HRP 0.001 mg/mL, read-out: KM^app), 18 ± 6.21 mM. For the same compound, the “Kcat^app/KM^app” value in test [3] (pMPC-nGOx, pH 7.0) is 3600 ± 1119 M⁻¹ s⁻¹; in test [4] (native GOx, pH 7.0) it was 4883 ± 1684 M⁻¹ s⁻¹.

As for `OO` [H2O2, hydrogen peroxide], the “Kcat^app/KM^app relative to native” value in test [5] (pMPC-nHRP vs native HRP) is listed as 91.1 ± 28.1%; in test [6] (native HRP = 100%), 100 ± 22.7%. Besides, the “kcat^app” value in test [5] (pMPC-nHRP, 0.1 M acetate buffer pH 5.01, 0.5 mM TMB, Lineweaver-Burk) is 480 s⁻¹; in test [6] (native HRP, 0.1 M acetate buffer pH 5.01, 0.5 mM TMB, Lineweaver-Burk), 403 s⁻¹. Further, the “Kcat^app/KM^app” value in test [5] (pMPC-nHRP, pH 5.01, 0.5 mM TMB) came out at 3.9669e+06 ± 1.1147e+06 M⁻¹ s⁻¹. Further, the Km in test [5] (read-out: KM^app, pMPC-nHRP, 0.1 M acetate buffer pH 5.01, 0.5 mM TMB, Lineweaver-Burk) turned out to be 0.121 ± 0.034 mM.

As to `CCO` [ethanol], the “Kcat^app/KM^app relative to native” value in test [7] (native AOx = 100%) is on record as 100 ± 23.61%; in test [8] (pMPC-nAOx vs native AOx) it was 75.6 ± 28.00%. For the same compound, the “kcat^app” value in test [7] (native AOx, 0.1 M phosphate buffer pH 7.0, 0.5 mM TMB, HRP 0.001 mg/mL) is 18.8 s⁻¹; in test [8] (pMPC-nAOx, 0.1 M phosphate buffer pH 7.0, 0.5 mM TMB, HRP 0.001 mg/mL) it was 23.4 s⁻¹. Besides, the “Kcat^app/KM^app” value amounted to 6047 ± 1428 M⁻¹ s⁻¹ in test [7] (native AOx, pH 7.0) and 4570 ± 1279 M⁻¹ s⁻¹ in test [8] (pMPC-nAOx, pH 7.0). Further, the Km is 3.11 ± 0.72 mM in test [7] (read-out: KM^app, native AOx, 0.1 M phosphate buffer pH 7.0, 0.5 mM TMB, HRP 0.001 mg/mL) and 5.12 ± 1.43 mM in test [8] (read-out: KM^app, pMPC-nAOx, 0.1 M phosphate buffer pH 7.0, 0.5 mM TMB, HRP 0.001 mg/mL).

The values above are taken from patent US10722475B2, “Stealth nanocapsules for protein delivery” (THE REGENTS OF THE UNIVERSITY OF CALIFORNIA, priority 2014, dated 2020).
